Patent US5070078A, “Antiviral compounds” (Burroughs Wellcome Co., priority 1987, dated 1991)

Key:
adenovirus of serotype 8 = assay: anti-adenoviral activity, plaque assay in human epithelial cell line NCTC 2544 (EP); type: cell-based, adenovirus type 8
Experimental: The anti-adenoviral activity of Compound No. 1 referred to above was tested as follows:
(§1) Cells of human epithelial cell line NCTC 2544 (EP) were serially passaged from 75 cm^2 tissue culture flasks (Corning) at a spilt ratio of 1/20 every 7 days. The growth medium was Eagles BHK medium supplemented with 10% foetal bovine serum and contained 2.5% of 4.4% sodium bicarbonate solution together with 1% of penicillin (5000 IU ml^-1) and streptomycin (600 μg ml^-1) (Flow).
A stock of adenovirus of type 8 was prepared in 25 cm^2 tissue culture flasks. Flasks were seeded with 2×10^6 EP cells in growth medium and incubated overnight at 37° C. The medium was decanted and 1.0 ml of stock virus suspension was added to the flask. After 1.0 hr adsorption 10 ml of maintenance medium (as above but with 2% serum) was added to the flask.
The flask were incubated at 37° C. After 72 hrs the classical'bunch of grapes' cytopathic effect was visible. The flasks were then frozen and thawed 3 times to liberate the virus and stored at -70° C. Viral titres were usually of the order of 4×10^8 pfu ml^-1.
The plaque assay was performed in 50 mm diameter plastic tissue culture dishes which were initially seeded with 2×10^6 EP cells in growth medium and incubated overnight in 5% CO2 at 37° C. […]

[1] = Cytotoxicity Determination, trypan blue exclusion method; type: cell-based; details: human, NCTC 2544 cells, read-out: 50% cell culture inhibitory concentration
Experimental: as §1
Cytotoxicity was determined by means of the trypan blue exclusion method. NCTC 2544 cells were prepared in growth medium and aliquots added to […] tissue culture flasks at approximately 1×10^5 cells/ml. At 24 hours the flasks were divided and replenished with growth medium. One half of the flasks received growth medium containing 10 fold dilutions of compound thus exposing the cells to 1, 10, and 100 μM concentrations. At 24, 48, and 72 hours representative flasks were removed from the incubator and the monolayers washed to remove debris. The cells were resuspended in growth medium and aliquots mixed with an equal volume of trypan blue. Stained and unstained cells were counted in a haemocytometer. Cell counts were adjusted to cells/ml. An estimate of the growth and viability of treated and untreated cells was then made.

adenovirus serotype 5 = assay: anti-adenovirus activity against serotype 5 (statement only); type: cell-based

In the case of Cc1cn([C@H]2C[C@H](F)[C@@H](CO)O2)c(=O)[nH]c1=O [Compound No. 1, 2',3'-dideoxy-3'-fluorothymidine], the “anti-adenovirus activity (in words)” value (adenovirus of serotype 8; serotype 8) is reported as “particularly high anti-adenovirus activity”, the IC50 (adenovirus of serotype 8; unidentified adenovirus, NCTC-2544, adenovirus serotype 8, EP cells, plaque assay) is reported as 0.005 µM and the CC50 at 72 h [1] is reported as 38 µM. The “anti-adenovirus activity (in words)” value (adenovirus serotype 5) was “particularly high anti-adenovirus activity”.
